Source: US4486434A, “Histamine H1 -antagonists” (Smith Kline & French Laboratories Limited, priority 1981, dated 1984)

Assay: rat whole body radiography
Assay type: in vivo
Text: This has been shown by rat whole body radiography.

Cc1ccc(Cc2cnc(NCCCCc3ncc(Br)cc3C)[nH]c2=O)cn1 [Example 1, 2-[4-(5-bromo-3-methylpyrid-2-yl)-butylamino]-5-(6-methylpyrid-3-yl-methyl)-4-pyrimidone]
entry into the central nervous system: does not enter the central nervous system
